Each structure is given as a SMILES string. pIC50: −log10 of the molar value.

The target in this assay is T1, human MC1R (hMC1R) (Homo sapiens, UniProt Q01726).
T1 construct: purchased Perkin Elmer ES-195-M400UA
T1 sequence (Q01726 whole entry): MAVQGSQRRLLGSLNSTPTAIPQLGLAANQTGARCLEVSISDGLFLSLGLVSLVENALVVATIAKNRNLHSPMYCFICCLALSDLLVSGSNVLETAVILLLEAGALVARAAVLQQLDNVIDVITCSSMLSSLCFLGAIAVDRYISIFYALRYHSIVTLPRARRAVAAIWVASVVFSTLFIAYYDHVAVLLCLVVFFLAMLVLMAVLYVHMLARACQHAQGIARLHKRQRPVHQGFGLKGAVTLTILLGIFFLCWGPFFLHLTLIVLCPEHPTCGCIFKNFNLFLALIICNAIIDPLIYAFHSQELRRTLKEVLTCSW
The assay can be described thus: Human MC1R radioligand binding assay (displacement of 125I-labeled NDP-MSH, Perkin Elmer hMC1R membranes). The note with it: displacement of [125I]NDP-MSH, compounds tested as trifluoroacetate or hydrochloride salts or free base. The protocol: Assessments of compound binding to human MC1R (hMC1R)) by displacement of an ^125I-labeled NDP-MSH receptor ligand peptide were performed essentially as described in the data sheets produced by Perkin Elmer to accompany their frozen hMC1R membranes (Perkin Elmer catalog number ES-195-M400UA).
[^125I] NDP-MSH: radiolabeled in house and purified by HPLC:
Na ^125I (0.5 mCi, 17.4 Ci/mg) was added to 50 μL sodium phosphate (50 mM, pH 7.4) in an eppendorf tube precoated with IODOGEN. After incubation for 10 mins the phosphate buffer containing the iodine was added to NDP-MSH (10 ul at 1 mg/mL) in a separate eppendorf tube. This was incubated for a further 10 mins. The iodinated NDP-MSH was purified by HPLC on a Zorbax SB 300 column using solvent A: 0.05% TFA and solvent B: 90% acetonitrile 0.045% TFA with a linear gradient, 0-67% B over 60 mins.
Perkin Elmer frozen hMC1 membranes: catalog number ES-195-M400UA, 0.4 mL/vial; 400 microassays/vial, 0.78 mg/mL protein concentration
Vials of frozen membranes were thawed rapidly immediately before use, diluted with binding buffer and vortexed. Resuspended membranes were kept on ice until they were added to the wells of the plate.
Assays were performed in 96 well polypropylene plates. […] This was incubated for 1 hr at 37° C.
On the technique in general: Loss of bound radioactivity is the signal in a displacement assay; it reports binding, not function.
Broadly, the pIC50 is the IC50 on a negative log10 scale, so that one unit is a factor of ten. As to `CC[C@H](CN1CC[C@@H](CNC(=O)c2ccc3cc(Cl)ccc3c2)N[C@@H](CC(C)(C)N2CCCCC2)C1=O)c1ccccc1` [Compound 171, 6-chloro-N-(((3S,5S)-3-(2-methyl-2-(piperidin-1-yl)propyl)-2-oxo-1-((S)-2-phenylbutyl)-1,4-diazepan-5-yl)methyl)-2-naphthamide], the pIC50 was above 6.00.

Regarding `CC[C@H](CN1CC[C@@H](CNC(=O)c2ccc3cc(Cl)ccc3c2)N[C@@H](CCCN2CCCCC2)C1=O)c1ccccc1` [Compound 163, 6-chloro-N-(((3S,5S)-2-oxo-1-((S)-2-phenylbutyl)-3-(3-(piperidin-1-yl)propyl)-1,4-diazepan-5-yl)methyl)-2-naphthamide], the pIC50 is above 5.00.

Regarding `CNC(=O)[C@H](Cc1ccc2ccccc2c1)N1CC[C@H]2CN(Cc3ccc(F)cc3)C(=O)N2[C@@H](CCCNC(=N)N)C1=O` [Compound 142, (S)-2-((5S,9aS)-2-(4-fluorobenzyl)-5-(3-guanidinopropyl)-3,6-dioxotetrahydro-1H-imidazo[1,5-d][1,4]diazepin-7(8H,9H,9aH)-yl)-N-methyl-3-(naphthalen-2-yl)propanamide], the negative logarithm of the IC50 (pIC50) was above 5.00.

As to `O=C(NC[C@@H]1CCN(CC(c2ccccc2)c2ccccc2)C(=O)[C@H](CCN2CCCCC2)N1)c1cc(-c2ccc(Cl)cc2)on1` [Compound 162, 5-(4-chlorophenyl)-N-(((3S,5S)-1-(2,2-diphenylethyl)-2-oxo-3-(2-(piperidin-1-yl)ethyl)-1,4-diazepan-5-yl)methyl)isoxazole-3-carboxamide], the pIC50 was above 5.00.

For `O=C(NC[C@@H]1CCN(Cc2cc(Cl)cc(Cl)c2)C(=O)[C@H](CN2CCCCC2)N1)c1ccc(Cl)c(Cl)c1` [Compound 151, 3,4-dichloro-N-(((3S,5S)-1-(3,5-dichlorobenzyl)-2-oxo-3-(piperidin-1-ylmethyl)-1,4-diazepan-5-yl)methyl)benzamide], the negative-log IC50 (pIC50) was above 5.00.

`COc1c(C(=O)NC[C@@H]2CCN(CC(c3ccccc3)c3ccccc3)C(=O)[C@H](CCCNC(=N)N)N2)ccc2ccccc12` [Compound 115, N-(((3S,5S)-1-(2,2-diphenylethyl)-3-(3-guanidinopropyl)-2-oxo-1,4-diazepan-5-yl)methyl)-1-methoxy-2-naphthamide]: the pIC50 was above 5.00.

Regarding `CC1CCC(C)N1CC[C@@H]1N[C@H](CNC(=O)/C=C/c2ccc(Cl)cc2)CCN(CC(c2ccccc2)c2ccccc2)C1=O` (stereo partly drawn) [Compound 160, (E)-3-(4-chlorophenyl)-N-(((3S,5S)-3-(2-(2,5-dimethylpyrrolidin-1-yl)ethyl)-1-(2,2-diphenylethyl)-2-oxo-1,4-diazepan-5-yl)methyl)acrylamide], the pIC50 is above 5.00.

On to `CC[C@H](CN1CC[C@@H](CNC(=O)c2ccccc2-c2ccc(Cl)cc2)N[C@@H](CCN2CCCCC2)C1=O)c1ccccc1` [Compound 179, 4′-chloro-N-(((3S,5S)-2-oxo-1-((S)-2-phenylbutyl)-3-(2-(piperidin-1-yl)ethyl)-1,4-diazepan-5-yl)methyl)biphenyl-2-carboxamide], for which the pIC50 is above 5.00.

With `N=C(N)NCCC[C@@H]1N[C@H](CNC(=O)c2ccc3ccccc3c2)CCN(CC(C(=O)Nc2ccccc2)c2ccccc2)C1=O` (stereo partly drawn) [Compound 147, N-(((3S,5S)-3-(3-guanidinopropyl)-2-oxo-1-(3-oxo-2-phenyl-3-(phenylamino)propyl)-1,4-diazepan-5-yl)methyl)-2-naphthamide], the pIC50 was above 5.00.

In the case of `O=C(/C=C/c1ccc(Br)cc1)NC[C@@H]1CCN(CC(c2ccccc2)c2ccccc2)C(=O)[C@H](CCN2CCCCC2)N1` [Compound 161, (E)-3-(4-bromophenyl)-N-(((3S,5S)-1-(2,2-diphenylethyl)-2-oxo-3-(2-(piperidin-1-yl)ethyl)-1,4-diazepan-5-yl)methyl)acrylamide], the pIC50 is above 5.00.

On to `O=C(/C=C/c1ccc(F)cc1F)NC[C@@H]1CCN(CC(c2ccccc2)c2ccccc2)C(=O)[C@H](CCN2CCCCC2)N1` [Compound 158, (E)-3-(2,4-difluorophenyl)-N-(((3S,5S)-1-(2,2-diphenylethyl)-2-oxo-3-(2-(piperidin-1-yl)ethyl)-1,4-diazepan-5-yl)methyl)acrylamide], for which the pIC50 is above 5.00.

Turning to `CC1CC(C)CC(CN2CC[C@@H](CNC(=O)c3ccc4ccccc4c3)N[C@@H](CCCNC(=N)N)C2=O)C1` (stereo partly drawn) [Compound 139, N-(((3S,5S)-1-((3,5-dimethylcyclohexyl)methyl)-3-(3-guanidinopropyl)-2-oxo-1,4-diazepan-5-yl)methyl)-2-naphthamide], the pIC50 is above 5.00.

For the molecule `N=C(N)NCCC[C@@H]1N[C@H](CNC(=O)c2cc3ccccc3[nH]2)CCN(CC(c2ccccc2)c2ccccc2)C1=O` [Compound 113, N-(((3S,5S)-1-(2,2-diphenylethyl)-3-(3-guanidinopropyl)-2-oxo-1,4-diazepan-5-yl)methyl)-1H-indole-2-carboxamide], the pIC50 is above 5.00.

`NC[C@@H]1N[C@H](CNC(=O)c2ccc(Cl)c(Cl)c2)CCN(Cc2cc(Cl)cc(Cl)c2)C1=O` [Compound 148, N-(((3S,5S)-3-(aminomethyl)-1-(3,5-dichlorobenzyl)-2-oxo-1,4-diazepan-5-yl)methyl)-3,4-dichlorobenzamide]: the pIC50 is above 5.00.

Regarding `CC[C@H](CN1CC[C@@H](CNC(=O)c2csc(-c3ccccc3)n2)N[C@@H](CCN2CCCCC2)C1=O)c1ccccc1` [Compound 178, N-(((3S,5S)-2-oxo-1-((S)-2-phenylbutyl)-3-(2-(piperidin-1-yl)ethyl)-1,4-diazepan-5-yl)methyl)-2-phenylthiazole-4-carboxamide], the pIC50 is above 5.00.

In the case of `CC[C@H](CN1CC[C@@H](CNC(=O)c2ccc(Cl)c(Cl)c2)N[C@@H](CCN)C1=O)c1ccccc1` [Compound 170, N-(((3S,5S)-3-(2-aminoethyl)-2-oxo-1-((S)-2-phenylbutyl)-1,4-diazepan-5-yl)methyl)-3,4-dichlorobenzamide], the pIC50 was above 5.00.

With `O=C(/C=C/c1ccc(Cl)cc1)NC[C@@H]1CCN(CC(c2ccccc2)c2ccccc2)C(=O)[C@H](CCCN2CCCCC2)N1` [Compound 132, (E)-3-(4-chlorophenyl)-N-(((3S,5S)-1-(2,2-diphenylethyl)-2-oxo-3-(3-(piperidin-1-yl)propyl)-1,4-diazepan-5-yl)methyl)acrylamide], the pIC50 was above 5.00.

Turning to `NC[C@@H]1N[C@H](CNC(=O)/C=C/c2ccc(Cl)cc2)CCN(CC(c2ccccc2)c2ccccc2)C1=O` [Compound 133, (E)-N-(((3S,5S)-3-(aminomethyl)-1-(2,2-diphenylethyl)-2-oxo-1,4-diazepan-5-yl)methyl)-3-(4-chlorophenyl)acrylamide], the pIC50 is above 5.00.

As to `CNC(=O)[C@H](Cc1ccc2ccccc2c1)N1CC[C@H](CNC(=O)[C@H](N)Cc2ccc(Cl)cc2)N[C@@H](CCCNC(=N)N)C1=O` [Compound 174, (R)-2-amino-3-(4-chlorophenyl)-N-(((3S,5R)-3-(3-guanidinopropyl)-1-((S)-1-(methylamino)-3-(naphthalen-2-yl)-1-oxopropan-2-yl)-2-oxo-1,4-diazepan-5-yl)methyl)propanamide], the negative logarithm of the IC50 (pIC50) was above 5.00.

`CN(C[C@@H]1CCN(CC(c2ccccc2)c2ccccc2)C(=O)[C@H](CCCN)N1)C(=O)c1ccc2cc(Br)ccc2c1` [Compound 104, N-(((3S,5S)-3-(3-aminopropyl)-1-(2,2-diphenylethyl)-2-oxo-1,4-diazepan-5-yl)methyl)-6-bromo-N-methyl-2-naphthamide]: the pIC50 is above 5.00.

In the case of `CCC(CN1CC[C@@H](CNC(=O)c2ccc3ccccc3c2)N[C@@H](CCN)C1=O)c1ccccc1` (mixture of isomers) [Compound 102, N-(((3S,5S)-3-(2-aminoethyl)-2-oxo-1-(2-phenylbutyl)-1,4-diazepan-5-yl)methyl)-2-naphthamide], the pIC50 is above 5.00.

As to `CNC(=O)[C@H](Cc1ccc2ccccc2c1)N1CC[C@H](CNCc2ccc(F)cc2)N[C@@H](CCCNC(=N)N)C1=O` [Compound 143, (S)-2-((3S,5R)-5-((4-fluorobenzylamino)methyl)-3-(3-guanidinopropyl)-2-oxo-1,4-diazepan-1-yl)-N-methyl-3-(naphthalen-2-yl)propanamide], the negative-log IC50 (pIC50) is above 5.00.

For the molecule `NCCC[C@@H]1N[C@H](CNC(=O)c2ccc(-c3ccc(Cl)cc3)o2)CCN(CC(c2ccccc2)c2ccccc2)C1=O` [Compound 128], the pIC50 is above 5.00.

For `N=C(N)NCCC[C@@H]1N[C@H](CNC(=O)c2ccc(-c3ccccc3)cc2)CCN(CC(c2ccccc2)c2ccccc2)C1=O` [Compound 108, N-(((3S,5S)-1-(2,2-diphenylethyl)-3-(3-guanidinopropyl)-2-oxo-1,4-diazepan-5-yl)methyl)biphenyl-4-carboxamide], the pIC50 was above 5.00.

Turning to `CC[C@@H](CN1CC[C@H](CNC(=O)c2ccc3cc(Cl)ccc3c2)N[C@H](CCN2CCCCC2)C1=O)c1ccccc1` [Compound 182, 6-chloro-N-(((3R,5R)-2-oxo-1-((R)-2-phenylbutyl)-3-(2-(piperidin-1-yl)ethyl)-1,4-diazepan-5-yl)methyl)-2-naphthamide], the pIC50 is above 5.00.

As for `NC[C@@H]1N[C@H](CNC(=O)c2ccc3ccccc3c2)CCN(Cc2cc(Cl)cc(Cl)c2)C1=O` [Compound 149, N-(((3S,5S)-3-(aminomethyl)-1-(3,5-dichlorobenzyl)-2-oxo-1,4-diazepan-5-yl)methyl)-2-naphthamide], the pIC50 is above 5.00.
